Data taken from patent publication US9783537B2, “3-(4-ethylnylphenyl) pyridopyrimidinone compounds and process for preparation thereof useful as potential anticancer agents” (Council of Scientific & Industrial Research, priority 2013, dated 2017).
Where two headings read alike, the source gives them in different places.

How the values were obtained:
SK-OV-3 = test: SRB 48 h growth assay, Ovarian SK-OV-3; assay type: cell-based, human; details: SK-OV-3, Ovarian
786-0 = test: SRB 48 h growth assay, Renal 786-0; assay type: cell-based, human; details: 786-0, Renal
HCT-116 = test: SRB 48 h growth assay, Colon HCT-116; assay type: cell-based, human; details: Homo sapiens, HCT-116, Colon
[1] = in vitro anticancer activity, melanoma panel; assay type: cell-based; details: Homo sapiens; nine melanoma cell lines, exposure at least 48 h; read-out: GI50, range over panel
TK-10 = test: SRB 48 h growth assay, Renal TK-10; assay type: cell-based, human; details: TK-10, Renal
CCRF-CEM = test: SRB 48 h growth assay, Leukemia CCRF-CEM; assay type: cell-based, human
NCI-H522 = test: SRB 48 h growth assay, Non-small Cell Lung NCI-H522; assay type: cell-based, human
RPMI-8226 = test: SRB 48 h growth assay, Leukemia RPMI-8226; assay type: cell-based, human; details: RPMI-8226, Leukemia
UACC-257 = test: SRB 48 h growth assay, Melanoma UACC-257; assay type: cell-based, human; details: Homo sapiens, UACC-257, Melanoma
A549/ATCC = test: SRB 48 h growth assay, Non-small Cell Lung A549/ATCC; assay type: cell-based, human
UACC-62 = test: SRB 48 h growth assay, Melanoma UACC-62; assay type: cell-based, human; details: UACC-62, Melanoma
NCI-H226 = test: SRB 48 h growth assay, Non-small Cell Lung NCI-H226; assay type: cell-based, human; details: Homo sapiens
[2] = tested on: six CNS cancer cell line (SF-268, SF-295, SF-539, SNB-19, SNB-75 and U251); test: in vitro anticancer activity, CNS panel; assay type: cell-based; details: Homo sapiens; six CNS cancer cell lines, exposure at least 48 h; read-out: GI50, range over panel
NCI/ADR-RES = test: SRB 48 h growth assay, Ovarian NCI/ADR-RES; assay type: cell-based, human
PC-3 = test: SRB 48 h growth assay, Prostate PC-3; assay type: cell-based, human; details: PC-3, Prostate
[3] = tested on: seven ovarian cancer cell lines (IGROV1, OVCAR-3, OVCAR-4, OVCAR-5, OVCAR-8, NCI/ADR-RES and SK-OV-3); test: in vitro anticancer activity, ovarian panel; assay type: cell-based; details: Homo sapiens, exposure at least 48 h, read-out: GI50, range over panel
[4] = tested on: seven colon cancer cell line (COLO 205, HCC-2998, HCT-116, HCT-15, HT29, KM12 and SW-620); test: in vitro anticancer activity, colon panel; assay type: cell-based; details: Homo sapiens; seven colon cancer cell lines, exposure at least 48 h; read-out: GI50, range over panel
OVCAR-3 = test: SRB 48 h growth assay, Ovarian OVCAR-3; assay type: cell-based, human; details: Homo sapiens, OVCAR-3, Ovarian
HOP-92 = test: SRB 48 h growth assay, Non-small Cell Lung HOP-92; assay type: cell-based, human; details: HOP-92, Non-small Cell Lung
SK-MEL-5 = test: SRB 48 h growth assay, Melanoma SK-MEL-5; assay type: cell-based, human; details: SK-MEL-5, Melanoma
K-562 = test: SRB 48 h growth assay, Leukemia K-562; assay type: cell-based, human
OVCAR-4 = test: SRB 48 h growth assay, Ovarian OVCAR-4; assay type: cell-based, human; details: OVCAR-4, Ovarian
SNB-75 = test: SRB 48 h growth assay, CNS SNB-75; assay type: cell-based, human; details: SNB-75, CNS
OVCAR-8 = test: SRB 48 h growth assay, Ovarian OVCAR-8; assay type: cell-based, human; details: OVCAR-8, Ovarian
M14 = test: SRB 48 h growth assay, Melanoma M14; assay type: cell-based, human
MDA-MB-231/ATCC = test: SRB 48 h growth assay, Breast MDA-MB-231/ATCC; assay type: cell-based, human
[5] = Homo sapiens, read-out: Growth Inhibition GI50
[6] = Homo sapiens, read-out: Log10 GI50 (converted)
[7] = Homo sapiens, read-out: Log10 LC50 (converted)
[8] = read-out: Growth Inhibition GI50
[9] = read-out: Log10 GI50 (converted)

For C#Cc1ccc(-n2c(/C=C/c3ccc4ccccc4c3)nc3ncccc3c2=O)cc1 [4s, (E)-3-(4-Ethynylphenyl)-2-(2-(naphthalen-2-yl)vinyl)pyrido[2,3-d]pyrimidin-4(3H)-one], which GI50 (SK-OV-3; [5]) is on record?
The GI50 was 7550 nM.

What about the GI50 (SK-OV-3; [6]) of the same compound?
Its GI50 is 7590 nM.

What about the CC50 (SK-OV-3; [7]) of the same compound?
The CC50 was > 100000 nM.

And the “Log10 TGI50” value (SK-OV-3)?
The value was >−4.00.

What about the “Log10 TGI50” value (786-0) of the same compound?
The value was >−4.00.

And the GI50 (786-0; [5])?
Its GI50 is 4080 nM.

And the GI50 (786-0; [6])?
The GI50 was 4070 nM.

And the CC50 (786-0; [7])?
The CC50 was > 100000 nM.

What about the GI50 (HCT-116; [8]) of the same compound?
Its GI50 is 2220 nM.

And the GI50 (HCT-116; [9])?
The GI50 was 2240 nM.

And the GI50 [1]?
The GI50 was 190 to 1210 nM.

And the GI50 (TK-10; [5])?
The GI50 was 4040 nM.

And the GI50 (TK-10; [6])?
Its GI50 is 4070 nM.

And the CC50 (TK-10; [7])?
Its CC50 is > 100000 nM.

What about the “Log10 TGI50” value (TK-10) of the same compound?
The value was >−4.00.

What about the “Log10 TGI50” value (CCRF-CEM) of the same compound?
The value was >−4.00.

And the CC50 (CCRF-CEM; Homo sapiens, CCKF-CEM, read-out: Log10 LC50 (converted))?
The CC50 was > 100000 nM.

What about the GI50 (CCRF-CEM; [5]) of the same compound?
Its GI50 is 1530 nM.

What about the GI50 (CCRF-CEM; [6]) of the same compound?
The GI50 was 1510 nM.

What about the “Log10 TGI50” value (NCI-H522) of the same compound?
Its value is >−4.00.

What about the GI50 (NCI-H522; [5]) of the same compound?
Its GI50 is 5110 nM.

What about the GI50 (NCI-H522; [6]) of the same compound?
Its GI50 is 5130 nM.

And the CC50 (NCI-H522; [7])?
Its CC50 is > 100000 nM.

What about the GI50 (RPMI-8226; [5]) of the same compound?
The GI50 was 450 nM.

And the GI50 (RPMI-8226; [6])?
The GI50 was 447 nM.

And the CC50 (RPMI-8226; [7])?
Its CC50 is > 100000 nM.

And the “Log10 TGI50” value (RPMI-8226)?
Its value is >−4.00.

What about the GI50 (UACC-257; [8]) of the same compound?
The GI50 was 2110 nM.

What about the GI50 (UACC-257; [9]) of the same compound?
The GI50 was 2090 nM.

And the “Log10 TGI50” value (A549/ATCC)?
The value was >−4.00.

What about the GI50 (A549/ATCC; [5]) of the same compound?
The GI50 was 2730 nM.

What about the GI50 (A549/ATCC; [6]) of the same compound?
Its GI50 is 2750 nM.

And the CC50 (A549/ATCC; [7])?
The CC50 was > 100000 nM.

And the GI50 (UACC-62; [5])?
Its GI50 is 2490 nM.

What about the GI50 (UACC-62; [6]) of the same compound?
The GI50 was 2510 nM.

And the CC50 (UACC-62; [7])?
Its CC50 is > 100000 nM.

What about the “Log10 TGI50” value (UACC-62) of the same compound?
Its value is >−4.00.

What about the GI50 (NCI-H226; [8]) of the same compound?
Its GI50 is 2330 nM.

And the GI50 (NCI-H226; [9])?
The GI50 was 2340 nM.

What about the GI50 [2] of the same compound?
Its GI50 is 200 to 720 nM.

What about the “Log10 TGI50” value (NCI/ADR-RES) of the same compound?
The value was >−4.00.

And the GI50 (NCI/ADR-RES; [5])?
Its GI50 is 3290 nM.

What about the GI50 (NCI/ADR-RES; [6]) of the same compound?
Its GI50 is 3310 nM.

What about the CC50 (NCI/ADR-RES; [7]) of the same compound?
Its CC50 is > 100000 nM.

What about the GI50 (PC-3; [5]) of the same compound?
The GI50 was 2350 nM.

What about the GI50 (PC-3; [6]) of the same compound?
The GI50 was 2340 nM.

What about the CC50 (PC-3; [7]) of the same compound?
The CC50 was > 100000 nM.

What about the “Log10 TGI50” value (PC-3) of the same compound?
The value was >−4.00.

And the GI50 [3]?
Its GI50 is 300 to 400 nM.

And the GI50 [4]?
The GI50 was 300 to 360 nM.

What about the GI50 (OVCAR-3; [8]) of the same compound?
The GI50 was 2040 nM.

And the GI50 (OVCAR-3; [9])?
Its GI50 is 2040 nM.

And the “Log10 TGI50” value (HOP-92)?
The value was −5.16.

And the GI50 (HOP-92; [5])?
The GI50 was 1630 nM.

What about the GI50 (HOP-92; [6]) of the same compound?
Its GI50 is 1620 nM.

And the CC50 (HOP-92; [7])?
The CC50 was 6920 nM.

And the GI50 (SK-MEL-5; [5])?
The GI50 was 1160 nM.

And the GI50 (SK-MEL-5; [6])?
The GI50 was 1150 nM.

And the CC50 (SK-MEL-5; [7])?
Its CC50 is 2510 nM.

And the “Log10 TGI50” value (SK-MEL-5)?
Its value is −5.60.

And the GI50 (K-562; Homo sapiens, K562, K-562, Leukemia, read-out: Growth Inhibition GI50)?
The GI50 was 2430 nM.

What about the GI50 (K-562; Homo sapiens, K562, K-562, Leukemia, read-out: Log10 GI50 (converted)) of the same compound?
Its GI50 is 2450 nM.

What about the CC50 (K-562; Homo sapiens, K562, K-562, Leukemia, read-out: Log10 LC50 (converted)) of the same compound?
Its CC50 is > 100000 nM.

What about the “Log10 TGI50” value (K-562; K-562, Leukemia) of the same compound?
The value was “->−4.00”.

And the GI50 (OVCAR-4; [5])?
The GI50 was 1950 nM.

And the GI50 (OVCAR-4; [6])?
The GI50 was 1950 nM.

What about the CC50 (OVCAR-4; [7]) of the same compound?
The CC50 was > 100000 nM.

What about the “Log10 TGI50” value (OVCAR-4) of the same compound?
Its value is >−4.00.

And the GI50 (SNB-75; [5])?
The GI50 was 3690 nM.

And the GI50 (SNB-75; [6])?
Its GI50 is 2950 nM.

And the CC50 (SNB-75; [7])?
Its CC50 is > 100000 nM.

What about the “Log10 TGI50” value (SNB-75) of the same compound?
The value was >−4.00.

What about the GI50 (OVCAR-8; [5]) of the same compound?
Its GI50 is 3050 nM.

What about the GI50 (OVCAR-8; [6]) of the same compound?
The GI50 was 3020 nM.

What about the CC50 (OVCAR-8; [7]) of the same compound?
The CC50 was > 100000 nM.

And the “Log10 TGI50” value (OVCAR-8)?
The value was >−4.00.

And the “Log10 TGI50” value (M14)?
Its value is −5.36.

What about the GI50 (M14; [5]) of the same compound?
Its GI50 is 2070 nM.

What about the GI50 (M14; [6]) of the same compound?
The GI50 was 2090 nM.

What about the CC50 (M14; [7]) of the same compound?
Its CC50 is 4370 nM.

And the “Log10 TGI50” value (MDA-MB-231/ATCC)?
Its value is >−4.00.

And the GI50 (MDA-MB-231/ATCC; [5])?
Its GI50 is 3740 nM.

What about the GI50 (MDA-MB-231/ATCC; [6]) of the same compound?
Its GI50 is 3720 nM.

And the CC50 (MDA-MB-231/ATCC; [7])?
Its CC50 is > 100000 nM.
